Reference: US20090041839A1, “PHARMACEUTICAL COMPOSITIONS FOR THE TREATMENT OF PAIN” (priority 2007, published 2009)
Read-outs that look alike come from different tables or passages of the source.

Experiment: Single escalating dose, age and food-effect pharmacokinetic study of T-62 soft gelatin capsules (Example 11)
Assay type: in vivo
Conditions: human, plasma, po; for AUC(0-inf) / Cmax / AUC(0-t): arithmetic mean (SD); for AUC(0-t): read-out: AUC0-48; for Tmax: median
Source text: A single-center, 3-part study: Parts A and B were randomized, double-blind, and placebo-controlled, and evaluated the safety, tolerability, and pharmacokinetics of single, escalating dose levels of a T-62 composition in soft gelatin capsules (oral dosage form 4) in young healthy subjects (Part A), and a single dose of a T-62 composition in soft gelatin capsules (oral dosage form 4) in elderly healthy subjects (Part B). In Part C, the effect of food on the bioavailability of a single dose of T-62 (oral dosage form 4) in young healthy subjects was evaluated in an open label, randomized, crossover fashion.
Part A: The dose escalation phase of the study consisted of 6 cohorts of 12 young (18-45 years of age) healthy volunteers, a total of 72 subjects, randomly assigned in a 3:1 allocation to receive a single dose of either T-62 or placebo under fasted conditions. For all cohorts, subjects fasted for a minimum of 7 hours pre-dose to 4 hours post-dose. Subjects in the first cohort received a single dose of 100 mg of T-62 (n=9) or placebo (n=3). Subsequent cohorts of 12 new subjects received placebo or a higher dose level of T-62: Nine subjects in each cohort received a total of 2×100, 4×100, 8×100, 10×100 or 12×100 mg capsules of T-62; three subjects per dose level received placebo.
Part B: A total of 15 elderly subjects (≧65 years of age) were randomly assigned in a 4:1 allocation to receive a single dose of 4×100 mg of T-62 (n=12) or placebo (n=3) under fasted conditions, i.e., subjects were fasted for a minimum of 7 hours pre-dose to 4 hours post-dose.
Part C: A single cohort of 16 young (18-45 years of age) healthy volunteers were enrolled to evaluate the effect of food on the bioavailability and pharmacokinetics of a single-dose of 4×100 mg soft gelatin capsules of T-62. Subjects were randomly assigned in a 1:1 allocation to 1 of 2 treatment sequences (i.e., fed/fasted or fasted/fed) in a crossover fashion.
Each subject in Parts A and B completed Screening, Baseline, Treatment, and Follow-Up Phases. The Screening Phase was conducted on an outpatient basis within 30 days, but no less than 3 days, prior to the start of the Baseline Phase. The Baseline Phase consisted of clinical research unit (CRU) admission and final qualification assessments. The Treatment Phase was comprised of dosing, post-treatment safety assessments, and blood collections. Subjects were discharged approximately 50 hours after study drug administration on Day 3. The Follow-Up Phase occurred 2 to 4 days after discharge from the CRU.
Each subject in Part C completed a Screening Phase, Baseline and Treatment Phases for both crossover Dosing Periods I and II, and a single Follow-Up Phase. The Screening Phase was conducted on an outpatient basis within 30 days, but no less than 3 days, prior to the start of the Baseline Phase for Dosing Period I. Each Baseline Phase consisted of CRU admission and final/continuing qualification assessments. Each Treatment Phase was comprised of dosing, post-treatment safety assessments, and blood collections. T-62 was administered and post-treatment assessments were conducted on Day 1 of Dosing Period I. Subjects were discharged approximately 50 hours after study drug administration on Day 3. Following a 3-day washout, subjects crossed over and entered Dosing Period II. Subjects were re-admitted to the CRU one day before T-62 administration in Dosing Period II for Baseline assessments. T-62 was be administered and post-treatment assessments were conducted on Day 1 of Dosing Period II. Subjects were discharged approximately 50 hours after study drug administration on Day 3. The Follow-Up Phase occurred 2 to 4 days after discharge from the CRU following Dosing Period II. For each Dosing period, subjects randomized to receive T-62 under fed conditions were given a high fat breakfast on Day 1 about half an hour prior to dosing. Fasting subjects were not allowed to eat any food beginning a minimum of 7 hours pre-dose to 4 hours post-dose. […]

[1] = 100 mg, Part A, young healthy subjects, fasted, single oral dose 100 mg (oral dosage form 4), n = 9
[2] = 200 mg, Part A, young healthy subjects, fasted, single oral dose 2 × 100 mg (oral dosage form 4), n = 9
[3] = 400 mg, Part A, young healthy subjects, fasted, single oral dose 4 × 100 mg (oral dosage form 4), n = 9
[4] = 400 mg, Part B, elderly healthy subjects, fasted, single oral dose 4 × 100 mg (oral dosage form 4), n = 12
[5] = 400 mg, Part C, Fasted, young healthy subjects, single oral dose 4 × 100 mg (oral dosage form 4), n = 14
[6] = 400 mg, Part C, Fed, young healthy subjects, single oral dose 4 × 100 mg (oral dosage form 4), n = 16
[7] = 800 mg, Part A, young healthy subjects, fasted, single oral dose 8 × 100 mg (oral dosage form 4), n = 9
[8] = 1000 mg, Part A, young healthy subjects, fasted, single oral dose 10 × 100 mg (oral dosage form 4), n = 9
[9] = 1200 mg, Part A, young healthy subjects, fasted, single oral dose 12 × 100 mg (oral dosage form 4), n = 9

AUC(0-inf) [1]: 106 ng·h/mL
Cmax [1]: 30 ng/mL
AUC(0-t) [1]: 92.2 ng·h/mL
Tmax [1]: 2 h
AUC(0-inf) [2]: 242 ng·h/mL
Cmax [2]: 47.7 ng/mL
AUC(0-t) [2]: 224 ng·h/mL
Tmax [2]: 1 h
AUC(0-inf) [3]: 557 ng·h/mL
Cmax [3]: 110 ng/mL
AUC(0-t) [3]: 525 ng·h/mL
Tmax [3]: 2 h
AUC(0-inf) [4]: 1290 ng·h/mL
Cmax [4]: 227 ng/mL
AUC(0-t) [4]: 1200 ng·h/mL
Tmax [4]: 1.8 h
AUC(0-inf) [5]: 576 ng·h/mL
Cmax [5]: 95.8 ng/mL
AUC(0-t) [5]: 533 ng·h/mL
Tmax [5]: 2.3 h
AUC(0-inf) [6]: 933 ng·h/mL
Cmax [6]: 154 ng/mL
AUC(0-t) [6]: 884 ng·h/mL
Tmax [6]: 3.5 h
AUC(0-inf) [7]: 1020 ng·h/mL
Cmax [7]: 165 ng/mL
AUC(0-t) [7]: 978 ng·h/mL
Tmax [7]: 3.5 h
AUC(0-inf) [8]: 1460 ng·h/mL
Cmax [8]: 213 ng/mL
AUC(0-t) [8]: 1370 ng·h/mL
Tmax [8]: 3 h
AUC(0-inf) [9]: 1200 ng·h/mL
Cmax [9]: 157 ng/mL
AUC(0-t) [9]: 1110 ng·h/mL
Tmax [9]: 3.5 h
SMILES: Nc1sc2c(c1C(=O)c1ccc(Cl)cc1)CCCC2 [T-62, (2-amino-4,5,6,7-tetrahydrobenzo[b]thiophen-3-yl)(4-chlorophenyl)-methanone]
